This note sets out measurements from patent US12065436B2, “Cardiac sarcomere inhibitors” (Cytokinetics, Inc., priority 2018, dated 2024).

The target of the assay is bovine cardiac myofibrils (full-length cardiac myosin ATPase in the native sarcomere) (Bos taurus (Bovine), UniProt Q9BE39). Nature of the assay: Skinned bovine cardiac myofibril ATPase assay (PK/LDH-coupled). It counts as biochemical. Conditions: Ca2+ activating to 75% of maximal rate; for CDMF75 IC15: concentration giving 15% inhibition; for IC50: read-out: CDMF75 IC50. An outline of the steps: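 Triton-skinned bovine left-ventricle myofibrils (1 mg/mL) in PM 12 buffer (12 mM PIPES, 2 mM MgCl2, pH 6.8) with 50 μM ATP, 0.6 mM EGTA and CaCl2 set for 50% or 75% activation. Steady-state ATPase inhibition followed by PK/LDH-coupled NADH oxidation at 340 nm.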
bovine cardiac myofibrils (full-length cardiac myosin ATPase in the native sarcomere), sequence (Q9BE39 whole entry): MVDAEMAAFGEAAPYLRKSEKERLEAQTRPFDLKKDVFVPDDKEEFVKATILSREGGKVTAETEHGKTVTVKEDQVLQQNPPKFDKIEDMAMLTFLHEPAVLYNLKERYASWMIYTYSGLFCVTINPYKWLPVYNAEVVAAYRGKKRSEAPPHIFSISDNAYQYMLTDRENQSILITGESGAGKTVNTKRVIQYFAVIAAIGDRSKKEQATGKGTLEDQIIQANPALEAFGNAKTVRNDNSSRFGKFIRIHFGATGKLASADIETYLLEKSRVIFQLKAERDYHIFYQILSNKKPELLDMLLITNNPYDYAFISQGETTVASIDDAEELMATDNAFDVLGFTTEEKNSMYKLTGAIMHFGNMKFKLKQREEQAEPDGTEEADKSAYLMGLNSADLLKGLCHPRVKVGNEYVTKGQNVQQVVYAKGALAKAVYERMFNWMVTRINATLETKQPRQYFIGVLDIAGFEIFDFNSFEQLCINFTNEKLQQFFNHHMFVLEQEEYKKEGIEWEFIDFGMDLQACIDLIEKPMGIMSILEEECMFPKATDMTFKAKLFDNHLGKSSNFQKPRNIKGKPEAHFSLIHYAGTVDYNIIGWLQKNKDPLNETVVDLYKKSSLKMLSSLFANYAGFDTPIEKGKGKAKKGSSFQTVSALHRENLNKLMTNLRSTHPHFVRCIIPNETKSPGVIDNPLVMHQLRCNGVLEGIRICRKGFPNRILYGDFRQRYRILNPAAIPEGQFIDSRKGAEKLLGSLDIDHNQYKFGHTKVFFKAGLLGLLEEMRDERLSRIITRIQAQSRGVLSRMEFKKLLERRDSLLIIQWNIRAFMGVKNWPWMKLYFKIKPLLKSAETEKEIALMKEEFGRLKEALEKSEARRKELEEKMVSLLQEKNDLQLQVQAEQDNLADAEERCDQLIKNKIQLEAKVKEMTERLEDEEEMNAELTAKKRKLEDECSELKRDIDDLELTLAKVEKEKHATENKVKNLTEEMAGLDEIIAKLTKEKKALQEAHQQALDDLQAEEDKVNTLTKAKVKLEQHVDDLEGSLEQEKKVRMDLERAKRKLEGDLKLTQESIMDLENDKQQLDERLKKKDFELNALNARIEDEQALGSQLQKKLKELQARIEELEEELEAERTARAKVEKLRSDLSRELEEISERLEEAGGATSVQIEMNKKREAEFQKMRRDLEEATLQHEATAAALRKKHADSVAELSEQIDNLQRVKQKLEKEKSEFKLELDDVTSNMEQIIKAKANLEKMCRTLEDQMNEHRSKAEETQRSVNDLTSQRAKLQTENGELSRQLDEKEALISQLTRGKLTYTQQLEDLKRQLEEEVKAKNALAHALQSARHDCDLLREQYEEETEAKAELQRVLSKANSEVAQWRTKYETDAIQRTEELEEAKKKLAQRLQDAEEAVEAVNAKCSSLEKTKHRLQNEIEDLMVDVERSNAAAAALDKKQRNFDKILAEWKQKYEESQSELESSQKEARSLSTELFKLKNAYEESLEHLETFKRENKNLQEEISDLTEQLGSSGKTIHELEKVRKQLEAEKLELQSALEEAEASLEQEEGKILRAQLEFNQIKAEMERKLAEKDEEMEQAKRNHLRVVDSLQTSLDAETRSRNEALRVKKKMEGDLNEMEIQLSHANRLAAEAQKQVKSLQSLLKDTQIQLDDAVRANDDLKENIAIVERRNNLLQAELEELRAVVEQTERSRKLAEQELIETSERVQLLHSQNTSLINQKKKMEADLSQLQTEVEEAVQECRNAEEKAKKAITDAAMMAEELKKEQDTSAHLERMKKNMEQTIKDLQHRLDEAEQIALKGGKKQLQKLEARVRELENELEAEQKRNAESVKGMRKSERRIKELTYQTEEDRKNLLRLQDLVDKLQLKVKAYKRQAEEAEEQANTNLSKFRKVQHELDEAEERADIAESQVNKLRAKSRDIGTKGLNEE
bovine cardiac myofibrils (full-length cardiac myosin ATPase in the native sarcomere), sequence (P85100 whole entry partner): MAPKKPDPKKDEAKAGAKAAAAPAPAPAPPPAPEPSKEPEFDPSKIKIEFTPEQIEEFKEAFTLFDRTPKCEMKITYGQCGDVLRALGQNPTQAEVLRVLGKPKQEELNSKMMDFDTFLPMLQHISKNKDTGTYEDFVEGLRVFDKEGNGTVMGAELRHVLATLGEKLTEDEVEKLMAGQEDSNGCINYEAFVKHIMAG
bovine cardiac myofibrils (full-length cardiac myosin ATPase in the native sarcomere), sequence (Q3SZE5 whole entry partner): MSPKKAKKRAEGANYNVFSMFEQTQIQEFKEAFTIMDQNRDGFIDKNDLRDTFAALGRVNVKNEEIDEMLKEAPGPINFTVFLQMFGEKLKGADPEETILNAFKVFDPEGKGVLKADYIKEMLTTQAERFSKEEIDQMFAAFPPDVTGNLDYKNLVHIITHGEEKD

As a reminder, the IC50 is the concentration needed to halve the response being measured. `[2H]C([2H])([2H])c1nc(-c2ccc3c(c2)OC[C@H]3NC(=O)c2oc(C)nc2C)no1` [Compound 268, (S)-2,4-dimethyl-N-(6-(5-(methyl-d3)-1,2,4-oxadiazol-3-yl)-2,3-dihydrobenzofuran-3-yl)oxazole-5-carboxamide]: the “CDMF75 IC15” value is 1900 nM and the IC50 was 5100 nM.

Consider `CC(C)NC(=O)N[C@@H]1CCc2cc(-c3noc(C(F)F)n3)ccc21` [Compound 292, (R)-1-(5-(5-(difluoromethyl)-1,2,4-oxadiazol-3-yl)-2,3-dihydro-1H-inden-1-yl)-3-isopropylurea], for which the “CDMF75 IC15” value was 39200 nM and the IC50 was greater than 39200 nM.

`Cc1cc(C(=O)N[C@@H]2CCc3cc(-c4cc(C(F)F)no4)ccc32)ccn1` [Compound 171, (R)-N-(5-(3-(difluoromethyl)isoxazol-5-yl)-2,3-dihydro-1H-inden-1-yl)-2-methylisonicotinamide]: the “CDMF75 IC15” value came out at 1700 nM and the IC50 stood at 6900 nM.

For `Cc1cc(C(=O)NC2COc3cc(-c4noc(C)n4)ccc32)n(C)n1` (stereo not drawn) [Compound 155, 1,3-dimethyl-N-(6-(5-methyl-1,2,4-oxadiazol-3-yl)-2,3-dihydrobenzofuran-3-yl)-1H-pyrazole-5-carboxamide], the “CDMF75 IC15” value is 1000 nM and the IC50 is 4100 nM.

With `CCc1nc(-c2ccc3c(c2)CCC[C@H]3NC(=O)c2cnn(C)c2)no1` [Compound 517, (R)—N-(6-(5-ethyl-1,2,4-oxadiazol-3-yl)-1,2,3,4-tetrahydronaphthalen-1-yl)-1-methyl-1H-pyrazole-4-carboxamide], the “CDMF75 IC15” value was found to be 2200 nM and the IC50 amounted to 9700 nM.

Turning to `CCc1nc(-c2ccc3c(c2)CC[C@H]3NC(=O)c2cnc(C)n2C)no1` [Compound 568, (R)-N-(5-(5-ethyl-1,2,4-oxadiazol-3-yl)-2,3-dihydro-1H-inden-1-yl)-1,2-dimethyl-1H-imidazole-5-carboxamide], the “CDMF75 IC15” value was 400 nM and the IC50 turned out to be 1600 nM.

Consider `Cc1cc(C(=O)N[C@@H]2CCc3cc(-c4noc(C(F)F)n4)ccc32)ccn1` [Compound 32, (R)-N-(5-(5-(difluoromethyl)-1,2,4-oxadiazol-3-yl)-2,3-dihydro-1H-inden-1-yl)-2-methylisonicotinamide], for which the “CDMF75 IC15” value came out at 600 nM and the IC50 is 2300 nM.

With `Cc1cc(C(=O)N[C@@H]2CCc3cc(-c4cc(C)on4)ccc32)ccn1` [Compound 138, (R)-2-methyl-N-(5-(5-methylisoxazol-3-yl)-2,3-dihydro-1H-inden-1-yl)isonicotinamide], the “CDMF75 IC15” value came out at 800 nM and the IC50 came to 2900 nM.

On to `Cc1nc(-c2ccc3c(c2)CCC3NC(=O)c2conc2C)no1` (stereo not drawn) [Compound 89, 3-methyl-N-(5-(5-methyl-1,2,4-oxadiazol-3-yl)-2,3-dihydro-1H-inden-1-yl)isoxazole-4-carboxamide], for which the “CDMF75 IC15” value came to 1000 nM and the IC50 amounted to 3300 nM.

Consider `CCc1nc(-c2ccc3c(c2)CC[C@H]3NC(=O)c2cnon2)no1` [Compound 615, (R)-N-(5-(5-ethyl-1,2,4-oxadiazol-3-yl)-2,3-dihydro-1H-inden-1-yl)-1,2,5-oxadiazole-3-carboxamide], for which the “CDMF75 IC15” value is 400 nM and the IC50 stood at 1400 nM.

In the case of `Cc1nc(-c2ccc3c(c2)CCC3NC(=O)c2ccccc2)no1` (stereo not drawn) [Compound 2, N-(5-(5-methyl-1,2,4-oxadiazol-3-yl)-2,3-dihydro-1H-inden-1-yl)benzamide], the “CDMF75 IC15” value worked out at 600 nM and the IC50 worked out at 2000 nM.

With `CCc1nc(-c2ccc3c(c2)CC[C@H]3NC(=O)C2(C)CC2)no1` [Compound 329, (R)-N-(5-(5-ethyl-1,2,4-oxadiazol-3-yl)-2,3-dihydro-1H-inden-1-yl)-1-methylcyclopropane-1-carboxamide], the “CDMF75 IC15” value came to 1700 nM and the IC50 turned out to be 7000 nM.

For `Cc1nc(-c2ccc3c(c2)OCC3NC(=O)c2cnn(C)c2)no1` (stereo not drawn) [Compound 212, 1-methyl-N-(6-(5-methyl-1,2,4-oxadiazol-3-yl)-2,3-dihydrobenzofuran-3-yl)-1H-pyrazole-4-carboxamide], the “CDMF75 IC15” value is 1700 nM and the IC50 amounted to 6000 nM.

For the compound `CCc1nc(-c2ccc3c(c2)CC[C@H]3NC(=O)c2ccn(C)n2)no1` [Compound 592, (R)-N-(5-(5-ethyl-1,2,4-oxadiazol-3-yl)-2,3-dihydro-1H-inden-1-yl)-1-methyl-1H-pyrazole-3-carboxamide], the “CDMF75 IC15” value was found to be 2700 nM and the concentration for half-maximal inhibition (IC50) was 10900 nM.

As to `CCc1nc(-c2ccc3c(c2)CC[C@H]3NC(=O)c2cc(CO)ccn2)no1` [Compound 652, (R)-N-(5-(5-ethyl-1,2,4-oxadiazol-3-yl)-2,3-dihydro-1H-inden-1-yl)-4-(hydroxymethyl)picolinamide], the “CDMF75 IC15” value came out at 500 nM and the IC50 was 1500 nM.

Take `Cc1nccnc1C(=O)NC1CCc2cc(-c3noc(C(F)F)n3)ccc21` (stereo not drawn) [Compound 38, N-(5-(5-(difluoromethyl)-1,2,4-oxadiazol-3-yl)-2,3-dihydro-1H-inden-1-yl)-3-methylpyrazine-2-carboxamide]: the “CDMF75 IC15” value was 2200 nM and the IC50 turned out to be 9500 nM.

For the compound `CCc1nc(-c2ccc3c(c2)CC[C@H]3NC(=O)OC2COC2)no1` [Compound 357, oxetan-3-yl (R)-(5-(5-ethyl-1,2,4-oxadiazol-3-yl)-2,3-dihydro-1H-inden-1-yl)carbamate], the “CDMF75 IC15” value was found to be 500 nM and the IC50 came out at 1700 nM.

`Cc1nc(-c2ccc3c(c2)CC[C@H]3NC(=O)c2cccc([C@@H](C)O)c2)no1` [Compound 726, 3-((R)-1-hydroxyethyl)-N-((R)-5-(5-methyl-1,2,4-oxadiazol-3-yl)-2,3-dihydro-1H-inden-1-yl)benzamide]: the “CDMF75 IC15” value stood at 1200 nM and the 50% inhibitory concentration (IC50) stood at 6000 nM.

As to `CCc1nc(-c2ccc3c(c2)CC[C@H]3NC(=O)OCC2CN(C(=O)OC)C2)no1` [Compound 361, methyl (R)-3-((((5-(5-ethyl-1,2,4-oxadiazol-3-yl)-2,3-dihydro-1H-inden-1-yl)carbamoyl)oxy)methyl)azetidine-1-carboxylate], the “CDMF75 IC15” value worked out at 23700 nM and the IC50 was greater than 39200 nM.

As to `CCc1nc(-c2ccc3c(c2)CC[C@H]3NC(=O)c2cnn(CCOC)c2C)no1` [Compound 575, (R)-N-(5-(5-ethyl-1,2,4-oxadiazol-3-yl)-2,3-dihydro-1H-inden-1-yl)-1-(2-methoxyethyl)-5-methyl-1H-pyrazole-4-carboxamide], the “CDMF75 IC15” value came to 1100 nM and the IC50 worked out at 4200 nM.

Consider `O=C(N[C@@H]1CCc2cc(-c3noc(C(F)F)n3)ccc21)C1CCOC1` (stereo partly drawn) [Compound 294, N-((R)-5-(5-(difluoromethyl)-1,2,4-oxadiazol-3-yl)-2,3-dihydro-1H-inden-1-yl)tetrahydrofuran-3-carboxamide], for which the “CDMF75 IC15” value was determined as 15600 nM and the IC50 was greater than 39200 nM.

On to `[2H]C([2H])([2H])c1nc(-c2ccc3c(c2)OC[C@H]3NC(=O)c2cc(C)nn2C)no1` [Compound 266, (S)-1,3-dimethyl-N-(6-(5-(methyl-d3)-1,2,4-oxadiazol-3-yl)-2,3-dihydrobenzofuran-3-yl)-1H-pyrazole-5-carboxamide], for which the “CDMF75 IC15” value worked out at 900 nM and the concentration for half-maximal inhibition (IC50) turned out to be 2700 nM.

With `CCc1nc(-c2ccc3c(c2)CC[C@H]3NC(=O)c2ccno2)no1` [Compound 581, (R)-N-(5-(5-ethyl-1,2,4-oxadiazol-3-yl)-2,3-dihydro-1H-inden-1-yl)isoxazole-5-carboxamide], the “CDMF75 IC15” value turned out to be 400 nM and the IC50 was determined as 1400 nM.

As to `Cc1ccnc(C(=O)NC2CCc3cc(-c4noc(C(F)F)n4)ccc32)c1` (stereo not drawn) [Compound 67, N-(5-(5-(difluoromethyl)-1,2,4-oxadiazol-3-yl)-2,3-dihydro-1H-inden-1-yl)-4-methylpicolinamide], the “CDMF75 IC15” value is 900 nM and the IC50 was determined as 4700 nM.

For the compound `CCC(=O)N[C@@H]1CCc2cc(-c3noc(CC)n3)ccc21` [Compound 317, (R)-N-(5-(5-ethyl-1,2,4-oxadiazol-3-yl)-2,3-dihydro-1H-inden-1-yl)propionamide], the “CDMF75 IC15” value came out at 2700 nM and the IC50 worked out at 12100 nM.

Consider `Cc1ncc(C(=O)N[C@@H]2COc3cc(-c4noc(C5CC5)n4)ccc32)o1` [Compound 463, (S)-N-(6-(5-cyclopropyl-1,2,4-oxadiazol-3-yl)-2,3-dihydrobenzofuran-3-yl)-2-methyloxazole-5-carboxamide], for which the “CDMF75 IC15” value came out at 700 nM and the IC50 was found to be 2400 nM.

With `Cc1nc(-c2ccc3c(c2)CCC3NC(=O)Nc2ccncc2)no1` (stereo not drawn) [Compound 85, 1-(5-(5-methyl-1,2,4-oxadiazol-3-yl)-2,3-dihydro-1H-inden-1-yl)-3-(pyridin-4-yl)urea], the “CDMF75 IC15” value turned out to be 5500 nM and the IC50 was found to be 24100 nM.

For `Cc1nc(-c2ccc3c(c2)CC[C@H]3NC(=O)c2c[nH]nc2C)no1` [Compound 400, (R)-3-methyl-N-(5-(5-methyl-1,2,4-oxadiazol-3-yl)-2,3-dihydro-1H-inden-1-yl)-1H-pyrazole-4-carboxamide], the “CDMF75 IC15” value was 800 nM and the IC50 was 2800 nM.

`O=C(NC1CCc2cc(-c3noc(C(F)F)n3)cnc21)c1ccccc1` (stereo not drawn) [Compound 94, N-(3-(5-(difluoromethyl)-1,2,4-oxadiazol-3-yl)-6,7-dihydro-5H-cyclopenta[b]pyridin-7-yl)benzamide]: the “CDMF75 IC15” value worked out at 5200 nM and the IC50 was 26600 nM.

For the compound `Cc1cc(-c2ccc3c(c2)OC[C@H]3NC(=O)c2nnn(C)n2)no1` [Compound 364, (S)-2-methyl-N-(6-(5-methylisoxazol-3-yl)-2,3-dihydrobenzofuran-3-yl)-2H-tetrazole-5-carboxamide], the “CDMF75 IC15” value came out at 1600 nM and the IC50 is 6800 nM.
